Legend:
[1] = biological target: neuraminidase (NA) of H1N1 (A/PR/8/34) (Influenza A virus (A/Puerto Rico/8/1934(H1N1)), UniProt P03468); assay: NA-Fluor fluorescence assay, whole virus; type: biochemical; settings: read-out: % inhibition at 10 μmol/L
[2] = biological target: neuraminidase (NA) of H1N1 (A/PR/8/34) (Influenza A virus (A/Puerto Rico/8/1934(H1N1)), UniProt P03468); assay: NA-Fluor fluorescence assay, whole virus; type: biochemical; settings: NA-Fluor substrate, […] °C, […] min preincubation, […] h

neuraminidase (NA) of H1N1 (A/PR/8/34) (Influenza A virus (A/Puerto Rico/8/1934(H1N1)), UniProt P03468), sequence (P03468 whole entry): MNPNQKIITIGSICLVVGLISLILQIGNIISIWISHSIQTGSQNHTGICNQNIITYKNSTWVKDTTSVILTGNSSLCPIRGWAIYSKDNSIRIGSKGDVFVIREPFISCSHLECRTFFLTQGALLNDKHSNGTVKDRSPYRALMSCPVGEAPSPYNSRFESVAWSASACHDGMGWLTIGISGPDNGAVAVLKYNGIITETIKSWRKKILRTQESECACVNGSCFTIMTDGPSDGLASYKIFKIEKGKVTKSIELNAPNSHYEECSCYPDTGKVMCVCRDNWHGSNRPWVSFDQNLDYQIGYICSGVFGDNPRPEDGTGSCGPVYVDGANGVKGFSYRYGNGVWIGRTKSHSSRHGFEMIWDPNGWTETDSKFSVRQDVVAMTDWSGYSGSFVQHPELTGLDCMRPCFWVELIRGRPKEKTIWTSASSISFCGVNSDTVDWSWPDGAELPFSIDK

Compound	inhibition at 10 µM [1] [%]	% inhibition at 10 μmol/L [2]
Oc1ccc([C@H]2c3c(O)cc(O)cc3[C@H]3c4c(cc(O)cc4[C@@H]2c2cc(/C=C/c4cc(O)cc5c4[C@H](c4cc(O)cc(O)c4)[C@@H](c4ccc(O)cc4)O5)ccc2O)O[C@@H]3c2ccc(O)cc2)cc1 [vitisin A]	43	–
Oc1ccc(/C=C/c2cc(O)cc3c2[C@@H](c2cc(O)cc(O)c2)[C@H](c2ccc(O)cc2)O3)cc1 [ε-viniferin]	–	Ampelopsin A and ε-viniferin exhibited weak inhibitory effects

Source: article PMC9939323 (Acta Pharmaceutica Sinica. B, 2022)
